Reference: PMC5978685, “Design, Synthesis, and Evaluation of Novel Immunomodulatory Small Molecules Targeting the CD40–CD154 Costimulatory Protein-Protein Interaction” (Molecules : A Journal of Synthetic Chemistry and Natural …, 2018)
Entries after “also recorded” stand apart in the source; their conditions may differ.

Key:
OX40–OX40L = target: T1, OX40–OX40L (Homo sapiens, UniProt P23510); test: cell-free ELISA-type binding inhibition assay, OX40–OX40L
T1 construct: purchased Enzo Life Sciences
T1 sequence (P23510 51-183 limits assumed): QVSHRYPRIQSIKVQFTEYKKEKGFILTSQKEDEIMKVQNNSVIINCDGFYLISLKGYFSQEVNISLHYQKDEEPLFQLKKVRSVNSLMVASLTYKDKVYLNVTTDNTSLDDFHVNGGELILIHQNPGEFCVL
Method: In parallel with the CD40–CD154 assay, the ability of these compounds to inhibit other TNFSFR–TNFSF PPIs, including OX40–OX40L, BAFFR–BAFF, and TNF-R1–TNF-α, was also assessed (Figure 3B–D).
(§1) Binding inhibition assays were performed in a 96-well cell-free format as described before. Briefly, microtiter plates (Nunc F Maxisorp, 96-well; Thermo Fisher Scientific, Waltham, MA, USA) were coated overnight at 4 °C with 100 μL/well of Fc-conjugated receptors diluted in PBS pH 7.2. This was followed by blocking with 200 μL/well of blocking solution (PBS pH 7.2, 0.05% Tween-20, 1% BSA) for 1 h at RT. Then, plates were washed twice using washing solution (PBS pH 7.4, 0.05% Tween-20) and tapped dry before the addition of the appropriate FLAG tagged ligands along with different concentrations of tested dyes diluted in binding buffer (100 mM HEPES, 0.005% BSA pH 7.2) to give a total volume of 100 μL/well. After 1 h incubation, three washes were conducted, and anti-FLAG HRP conjugate was used to detect the bound FLAG-tagged ligand. Plates were washed four times before the addition of 120 μL/well of HRP substrate TMB (3,3′,5,5′-tetramethylbenzidine) and kept in the dark for up to 15 min. The reaction was stopped using 30 μL of 1M H2SO4, and the absorbance value was read at 450 nm. The concentrations of receptors used were 0.3 μg/mL for CD40, TNF-R1, and BAFFR; 0.6 μg/mL for OX40. The concentrations of the ligands were fixed at 0.02 μg/mL for CD154 and TNF-α, 0.06 μg/mL for OX40L, and 0.03 μg/mL for BAFF. These values were selected following preliminary testing to optimize response (i.e., to produce a high-enough signal at conditions close to half-maximal response, EC50). […] To verify that inhibition is not due to colloidal aggregation, CD40 binding inhibition was also measured in the presence of the non-ionic detergent Triton-X 100 (0.01%), as recommended for the detection of such effects.
(§2) All binding inhibition and cell assays were tested in duplicate or triplicate per plates, and assays were performed as at least three independent experiments. As before, binding and cytotoxicity data were converted to percent inhibition and fitted with standard log inhibitor vs. normalized response models using nonlinear regression in GraphPad Prism (GraphPad, La Jolla, CA, USA) to establish half-maximal (median) inhibitory concentration (IC50) or median lethal concentration (LC50) values. Cell assay data were fitted with a similar model that also allowed for a variable slope using the log inhibitor vs. normalized response (variable slope) model from Prism with a Hill slope (n) shared across all compounds. Cell assays and draining lymph node data were analyzed by one-way repeated-measures analysis of variance (ANOVA) followed by Dunnett’s multiple comparison test as a post hoc test for individual differences using GraphPad Prism and a significance level of p < 0.05 for all comparisons.
(§3) Data are (counterclockwise) for human CD40–CD154 (CD40L) (A); OX40–OX40L (B); BAFFR–BAFF (C); and TNF-R1–TNFα (D) and were fitted with standard binding curves. Data are average ± SD (normalized to percent binding) for n = 3 independent experiments with duplicates for each condition.

CD40–CD154 (CD40L) = target: T2, CD40–CD154 (CD40L) (Homo sapiens, UniProt P29965); test: cell-free ELISA-type binding inhibition assay, CD40–CD154; details: for IC50: cell-free CD40–CD154 binding inhibition, read-out: CD40 IC50; for selectivity toward CD40–CD154 against all other PPIs tested: vs OX40–OX40L, BAFFR–BAFF, TNF-R1–TNF-α
T2 construct: purchased Enzo Life Sciences
T2 sequence (P29965 116-261 limits assumed): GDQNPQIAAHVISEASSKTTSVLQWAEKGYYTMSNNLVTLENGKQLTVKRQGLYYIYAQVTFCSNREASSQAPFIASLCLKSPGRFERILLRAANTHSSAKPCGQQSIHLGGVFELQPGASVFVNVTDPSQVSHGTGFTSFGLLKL
From the text: As a first assessment, the CD40–CD154 inhibitory activity of compounds 6–19 (Figure 2, Table 1) was quantified using a cell-free in vitro binding inhibition assay as described before. Data fitted with typical sigmoidal concentration dependence curves (log inhibitor versus response model in GraphPad Prism, Hill slope n = 1) are summarized in Figure 3A. […] Polymolecular conglomeration and/or aggregation is often a cause of promiscuous inhibition in screening assays. Therefore, just as in our previous work, we checked for this, and we confirmed for several compounds that inhibition due to aggregation is not the case by retesting inhibitory activity in the presence of a non-ionic detergent (Triton-X 100, 0.01%) as recommended for the detection of such effects.
as §1, §2, §3

[1] = system: alloantigen-induced T cell response in draining popliteal lymph node; test: alloantigen-induced T cell expansion in draining lymph node; format: in vivo, mouse (Balb/c); details: Balb/c mice, DBA-2 splenocytes in footpad; 10–20 mg/kg s.c. b.i.d.; p < 0.0001 vs vehicle
Method: The most promising compounds of the present series were evaluated for in vivo activity using the same model of alloantigen-induced T cell expansion in the draining lymph nodes (DLNs) that was described before. This procedure involved injection of splenocytes isolated from DBA-2 mice into the footpad of Balb/c recipients. Within three full days, this causes a significant increase in the number of cells in the draining popliteal lymph node, and this is inhibited by compounds with immunosuppressive activity.
The ability to inhibit alloantigen-induced T cell response in a draining lymph node was tested as described before. In brief, BALB/c mice (10–12 weeks old, female) received a footpad injection of 1 × 10^7 splenocytes isolated from DBA-2 mice (10–12 weeks old, male). CD154 antibody (MR-1; 20 mg/kg, day −1 and 0) or test compounds (20–60 mg/kg; b.i.d. from day −1 to 3, in 20% HPβCD) were administered s.c., and the draining popliteal lymph nodes (DLNs) were collected 3 days after the alloantigen challenge. DLN cells were counted and data are shown as mean ± SD (n = 3–4 per group).
as §2
Figure 6 Inhibition of alloantigen-induced T cell response in a draining lymph node by compounds 6, 15, 18, and 19. Mice (Balb/c) received a footpad injection of allogeneic splenocytes (isolated from DBA-2 mice) and were treated with anti-CD154 antibody (MR-1; 20 mg/kg, day −1 and 0) or compounds as shown (10–40 mg/kg, b.i.d. from day −1 to 3, s.c. in 20% HPβCD). Draining (popliteal) lymph nodes were collected three days after the alloantigen challenge and cells were counted. Data are shown as mean ± SD. Significant differences compared to vehicle-treated controls are indicated by asterisks (**** p < 0.0001; one-way ANOVA followed by Dunnett’s multiple comparison test).

| SMILES | IC50 (OX40–OX40L) | IC50 (CD40–CD154 (CD40L)) | selectivity toward CD40–CD154 against all other PPIs tested (CD40–CD154 (CD40L)) | selectivity toward CD40–CD154 against all other PPIs tested (CD40–CD154 (CD40L); listed as DRI-C21095) | inhibition of alloantigen-induced T cell expansion in draining lymph node [1] |
| --- | --- | --- | --- | --- | --- |
| COC(=O)c1ccc(-c2ccc(C(=O)Nc3ccc(-c4ccc(C(=O)Nc5cccc6cccc(S(=O)(=O)O)c56)cc4)cc3)cc2)cc1 [Compound 15, 8-(4′-(4′-(Methoxycarbonyl)-[1,1′-biphenyl]-4-carboxamido)-[1,1′-biphenyl]-4-carboxamido)naphthalene-1-sulfonic acid] | 1010 nM | 19 nM | > 30 fold | more than thirty-fold | highly significant inhibitory activity; also recorded: inhibited the alloantigen-induced T cell response in this model in statistically significant manner |
| O=C(Nc1ccc(-c2ccc(C(=O)Nc3cccc4cccc(S(=O)(=O)O)c34)cc2)nc1)c1ccc([N+](=O)[O-])cc1 [Compound 18, 8-(4-(5-(4-Nitrobenzamido)pyridin-2-yl)benzamido)naphthalene-1-sulfonic acid] | 5480 nM | 1340 nM |  |  | highly significant inhibitory activity; also recorded: inhibited the alloantigen-induced T cell response in this model in statistically significant manner |
| O=C(Nc1ccc(-c2ccc(C(=O)Nc3cccc4cccc(S(=O)(=O)O)c34)cc2)cc1)c1ccc([N+](=O)[O-])cc1 [Compound 6, 8-(4′-(4-Nitrobenzamido)biphenyl-4-ylcarboxamido)naphthalene-1-sulfonic acid] | 318000 nM | 87 nM |  |  | highly significant inhibitory activity; also recorded: inhibited the alloantigen-induced T cell response in this model in statistically significant manner |
